Test results: article PMC9652372, “Glycolytic flux control by drugging phosphoglycolate phosphatase” (Nature Communications, 2022)
In brackets after ≈: the same amount, converted by molar mass. Several values for one entry are separate records, joined by “and”; a condition that tells them apart may be missing. Identical values can stand only once. Like-named read-outs stand apart in the source and are kept apart here.

Key:
murine PDXP/PGP hybrid = target: T1, murine PDXP/PGP hybrid (Mus musculus, UniProt P60487+Q8CHP8); assay: PG dephosphorylation by PDXP/PGP hybrid protein; type: biochemical
T1 construct: consisting of the PGP cap domain (amino acids 114–233) fused to the PDXP core domain; His6 (N, cleaved yes); made in house; host or cells: Escherichia coli BL21 (DE3), pETM11
T1 sequence (P60487 1-100): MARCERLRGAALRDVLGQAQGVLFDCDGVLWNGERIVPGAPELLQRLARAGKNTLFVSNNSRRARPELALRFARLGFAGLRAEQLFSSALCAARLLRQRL
T1 sequence (Q8CHP8 114-233): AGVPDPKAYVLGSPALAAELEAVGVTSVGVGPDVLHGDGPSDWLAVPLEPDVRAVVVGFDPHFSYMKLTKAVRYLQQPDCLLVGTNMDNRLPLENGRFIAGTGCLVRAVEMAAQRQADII
T1 sequence (P60487 208-292): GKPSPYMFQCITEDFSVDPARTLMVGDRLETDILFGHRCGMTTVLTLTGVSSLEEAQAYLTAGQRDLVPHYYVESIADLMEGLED
Experimental: After centrifugation, cells were resuspended in TNM-2 (100 mM triethanolamine, 500 mM NaCl, 20 mM imidazole, 5 mM MgCl2; pH 7.4). Cleared supernatants were loaded on a HisTrap HP nickel sepharose column in TNM-3 (50 mM triethanolamine, 500 mM NaCl, 20 mM imidazole, 5 mM MgCl2; pH 7.4), and His6-tagged proteins were eluted using a linear gradient of up to 50% TNM-4 (50 mM triethanolamine; 250 mM NaCl; 500 mM imidazole; 5 mM MgCl2; pH 7.4). Peak fractions were pooled, the His6-tag was cleaved, and untagged PDXP or PDXP/PGP was isolated, concentrated and further purified by size exclusion chromatography in TNM-5 (50 mM triethanolamine; 250 mM NaCl; 5 mM MgCl2; pH 7.4). […] Data were analyzed with GraphPad Prism 7.04.

PGP^WT = target: T2, PGP^WT (Mus musculus, UniProt Q8CHP8); assay: Differential scanning fluorimetry (Thermofluor); type: binding
T2 construct: His6 (N, cleaved yes); made in house; host or cells: Escherichia coli BL21 (DE3), pETM11, co-expressed with groES-groEL-tig
T2 sequence (Q8CHP8 1-321): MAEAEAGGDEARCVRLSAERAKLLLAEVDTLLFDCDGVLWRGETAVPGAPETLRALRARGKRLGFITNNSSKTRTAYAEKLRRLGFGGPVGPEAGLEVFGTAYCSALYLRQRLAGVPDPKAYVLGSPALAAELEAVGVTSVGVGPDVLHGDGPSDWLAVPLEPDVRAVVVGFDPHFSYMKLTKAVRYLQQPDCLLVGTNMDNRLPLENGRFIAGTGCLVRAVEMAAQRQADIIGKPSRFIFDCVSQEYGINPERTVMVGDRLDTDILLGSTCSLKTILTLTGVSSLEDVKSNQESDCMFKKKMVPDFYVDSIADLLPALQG

physchem = conditions: organic solvent or mixture
murine PGP [1] = target: T3, murine PGP (Mus musculus, UniProt Q8CHP8); assay: biochemical
T3 sequence (Q8CHP8 1-321): T2 sequence (Q8CHP8 1-321)

murine PDXP = target: T4, murine PDXP (Mus musculus, UniProt P60487); assay: PDXP activity towards pyridoxal 5'-phosphate (PLP); conditions: phosphatase PDXP; species M.m.; substrate PLP; n.s. = no significant inhibition detectable
T4 sequence (P60487 1-292): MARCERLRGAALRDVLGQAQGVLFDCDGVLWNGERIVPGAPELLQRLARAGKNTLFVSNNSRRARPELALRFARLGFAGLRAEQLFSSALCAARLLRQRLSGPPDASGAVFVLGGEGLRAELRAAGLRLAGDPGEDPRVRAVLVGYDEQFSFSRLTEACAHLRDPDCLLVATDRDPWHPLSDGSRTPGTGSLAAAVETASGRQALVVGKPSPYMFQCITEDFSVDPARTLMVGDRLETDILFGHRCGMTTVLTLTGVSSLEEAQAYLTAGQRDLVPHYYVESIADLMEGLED

murine PGP [2] = target: T3, murine PGP; assay: IC50 determination, murine PGP, pNPP dephosphorylation
PGP = target: T5, PGP (Mus musculus, UniProt Q8CHP8); assay: Steady state kinetics of PG dephosphorylation in presence of CP1-3
T5 sequence (Q8CHP8 1-321): T2 sequence (Q8CHP8 1-321)

[3] = PG dephosphorylation, increasing CP concentrations

COc1ccc(C(=O)Nc2ccc(Cc3ccc(NC(=O)c4ccc(OC)c(OC)c4)c(C(=O)O)c3)cc2C(=O)O)cc1OC [CP2]
remaining activity at 64 µM (murine PDXP/PGP hybrid; activity, control = 100, CP log[M] -4.19382): 17.6%
remaining activity at 32 µM (murine PDXP/PGP hybrid; activity, control = 100, CP log[M] -4.49485): 16%
remaining activity at 16 µM (murine PDXP/PGP hybrid; activity, control = 100, CP log[M] -4.79588): 23.7%
remaining activity at 4 µM (murine PDXP/PGP hybrid; activity, control = 100, CP log[M] -5.39794): 48.1%
remaining activity at 2 µM (murine PDXP/PGP hybrid; activity, control = 100, CP log[M] -5.69897): 55.7%
remaining activity at 1 µM (murine PDXP/PGP hybrid; activity, control = 100, CP log[M] -6): 80.9%
remaining activity at 0.5 µM (murine PDXP/PGP hybrid; activity, control = 100, CP log[M] -6.30103): 90.8%
remaining activity at […] (murine PDXP/PGP hybrid; activity, control = 100, CP log[M] -6.60206): 93.9%
remaining activity at 0.125 µM (murine PDXP/PGP hybrid; activity, control = 100, CP log[M] -6.90309): 94.7%
remaining activity at 0.0625 µM (murine PDXP/PGP hybrid; activity, control = 100, CP log[M] -7.20412): 87.8%
remaining activity at 0.015625 µM (murine PDXP/PGP hybrid; activity, control = 100, CP log[M] -7.80618): 101%
IC50 (murine PDXP/PGP hybrid; phosphatase PDXP/PGP, species M.m., substrate PG): 2.57 ± 0.23 µM
TM (PGP^WT; Inhibitor 0.146484 µM): 66.4 °C
TM (PGP^WT; Inhibitor 0.292969 µM): 66.5 °C
TM (PGP^WT; Inhibitor 0.585938 µM): 66.5 °C
TM (PGP^WT; Inhibitor 1.17188 µM): 66.5 °C
TM (PGP^WT; Inhibitor 2.34375 µM): 66.6 °C
TM (PGP^WT; Inhibitor 4.6875 µM): 66.8 °C
TM (PGP^WT; Inhibitor 9.375 µM): 67.7 °C
TM (PGP^WT; Inhibitor 18.75 µM): 68.2 °C
TM (PGP^WT; Inhibitor 37.5 µM): 68.6 °C
TM (PGP^WT; Inhibitor 75 µM): 68.6 °C
TM (PGP^WT; Inhibitor 150 µM): 67.9 °C
increase in the maximal PGP melting temperature (PGP^WT; from 66.4 °C (control conditions)): 2.2 °
solubility (physchem): 15 mM (≈ 9220 µg/mL)
IC50 (murine PGP [1]): 1.58 µM and 0.7 µM
IC50 (murine PDXP): n.s.
IC50 (murine PGP [2]): 4.76 ± 1.19 µM
remaining activity at 50 µM (murine PGP [2]; read-out: M.m PGP on pNPP, activity, control = 100.00, CP log[M] -4.30103): 28.4%
remaining activity at 25 µM (murine PGP [2]; read-out: M.m PGP on pNPP, activity, control = 100.00, CP log[M] -4.60206): 32.2%
remaining activity at 10 µM (murine PGP [2]; read-out: M.m PGP on pNPP, activity, control = 100.00, CP log[M] -5): 43.5%
remaining activity at 5 µM (murine PGP [2]; read-out: M.m PGP on pNPP, activity, control = 100.00, CP log[M] -5.30103): 58.6%
remaining activity at […] (murine PGP [2]; read-out: M.m PGP on pNPP, activity, control = 100.00, CP log[M] -5.60206): 63.7%
remaining activity at 1 µM (murine PGP [2]; read-out: M.m PGP on pNPP, activity, control = 100.00, CP log[M] -6): 94.7%
remaining activity at 0.5 µM (murine PGP [2]; read-out: M.m PGP on pNPP, activity, control = 100.00, CP log[M] -6.30103): 85.5%
remaining activity at […] (murine PGP [2]; read-out: M.m PGP on pNPP, activity, control = 100.00, CP log[M] -6.60206): 93.2%
remaining activity at 0.125 µM (murine PGP [2]; read-out: M.m PGP on pNPP, activity, control = 100.00, CP log[M] -6.90309): 91.7%
remaining activity at 0.0625 µM (murine PGP [2]; read-out: M.m PGP on pNPP, activity, control = 100.00, CP log[M] -7.20412): 105%
remaining activity at 0.03125 µM (murine PGP [2]; read-out: M.m PGP on pNPP, activity, control = 100.00, CP log[M] -7.50515): 94%
mode of PGP inhibition (PGP): competitive inhibitors
PGP activity (PGP; 1 µM CP2, PG 25 µM): 1.021 µmol Pi/min/mg and 0.7809 µmol Pi/min/mg and 1.201 µmol Pi/min/mg
PGP activity (PGP; 1 µM CP2, PG 50 µM): 2.343 µmol Pi/min/mg and 1.682 µmol Pi/min/mg and 2.403 µmol Pi/min/mg
PGP activity (PGP; 1 µM CP2, PG 100 µM): 4.865 µmol Pi/min/mg and 4.265 µmol Pi/min/mg and 4.986 µmol Pi/min/mg
PGP activity (PGP; 1 µM CP2, PG 200 µM): 9.31 µmol Pi/min/mg and 8.409 µmol Pi/min/mg and 9.7309 µmol Pi/min/mg
PGP activity (PGP; 1 µM CP2, PG 300 µM): 14.9605 µmol Pi/min/mg and 10.9951 µmol Pi/min/mg and 14.0593 µmol Pi/min/mg
PGP activity (PGP; 1 µM CP2, PG 400 µM): 18.0247 µmol Pi/min/mg and 16.763 µmol Pi/min/mg and 17.3037 µmol Pi/min/mg
PGP activity (PGP; 1 µM CP2, PG 500 µM): 19.8272 µmol Pi/min/mg and 20.5481 µmol Pi/min/mg and 19.4667 µmol Pi/min/mg
PGP activity (PGP; 1 µM CP2, PG 600 µM): 21.8099 µmol Pi/min/mg and 21.6296 µmol Pi/min/mg
PGP activity (PGP; 1 µM CP2, PG 700 µM): 22.7111 µmol Pi/min/mg and 24.1531 µmol Pi/min/mg and 23.6123 µmol Pi/min/mg
PGP activity (PGP; 1 µM CP2, PG 800 µM): 21.8099 µmol Pi/min/mg and 23.0716 µmol Pi/min/mg and 24.8741 µmol Pi/min/mg
PGP activity (PGP; 2 µM CP2, PG 25 µM): 0.7809 µmol Pi/min/mg and 0.7208 µmol Pi/min/mg and 0.9611 µmol Pi/min/mg
PGP activity (PGP; 2 µM CP2, PG 50 µM): 1.081 µmol Pi/min/mg and 1.682 µmol Pi/min/mg and 1.982 µmol Pi/min/mg
PGP activity (PGP; 2 µM CP2, PG 100 µM): 2.9433 µmol Pi/min/mg and 3.424 µmol Pi/min/mg and 3.784 µmol Pi/min/mg
PGP activity (PGP; 2 µM CP2, PG 200 µM): 6.247 µmol Pi/min/mg and 7.088 µmol Pi/min/mg and 7.028 µmol Pi/min/mg
PGP activity (PGP; 2 µM CP2, PG 300 µM): 7.39 µmol Pi/min/mg and 11.3555 µmol Pi/min/mg and 12.0765 µmol Pi/min/mg
PGP activity (PGP; 2 µM CP2, PG 400 µM): 12.7975 µmol Pi/min/mg and 13.6988 µmol Pi/min/mg and 14.4198 µmol Pi/min/mg
PGP activity (PGP; 2 µM CP2, PG 500 µM): 16.763 µmol Pi/min/mg and 16.4025 µmol Pi/min/mg
PGP activity (PGP; 2 µM CP2, PG 600 µM): 17.8444 µmol Pi/min/mg and 17.3037 µmol Pi/min/mg and 17.6642 µmol Pi/min/mg
PGP activity (PGP; 2 µM CP2, PG 700 µM): 19.2864 µmol Pi/min/mg and 19.1062 µmol Pi/min/mg
PGP activity (PGP; 2 µM CP2, PG 800 µM): 20.3679 µmol Pi/min/mg and 20.7284 µmol Pi/min/mg and 19.2864 µmol Pi/min/mg
PGP activity (PGP; 4 µM CP2, PG 50 µM): 1.502 µmol Pi/min/mg and 0.7809 µmol Pi/min/mg and 1.321 µmol Pi/min/mg
PGP activity (PGP; 4 µM CP2, PG 100 µM): 2.523 µmol Pi/min/mg and 1.742 µmol Pi/min/mg and 2.222 µmol Pi/min/mg
PGP activity (PGP; 4 µM CP2, PG 200 µM): 4.745 µmol Pi/min/mg and 4.565 µmol Pi/min/mg
PGP activity (PGP; 4 µM CP2, PG 300 µM): 8.4716 µmol Pi/min/mg and 6.669 µmol Pi/min/mg and 5.7679 µmol Pi/min/mg
PGP activity (PGP; 4 µM CP2, PG 400 µM): 10.8148 µmol Pi/min/mg and 9.012 µmol Pi/min/mg
PGP activity (PGP; 4 µM CP2, PG 500 µM): 11.1753 µmol Pi/min/mg and 11.8963 µmol Pi/min/mg and 10.8148 µmol Pi/min/mg
PGP activity (PGP; 4 µM CP2, PG 600 µM): 12.437 µmol Pi/min/mg and 12.9778 µmol Pi/min/mg
PGP activity (PGP; 4 µM CP2, PG 700 µM): 13.5185 µmol Pi/min/mg and 14.0593 µmol Pi/min/mg and 12.9778 µmol Pi/min/mg
PGP activity (PGP; 4 µM CP2, PG 800 µM): 13.3383 µmol Pi/min/mg and 13.879 µmol Pi/min/mg and 14.6 µmol Pi/min/mg
vmax (PGP; CP 1.0 µM): 49.7 ± 4.0 µmol/min/mg
vmax (PGP; CP 2.0 µM): 51.9 ± 5.9 µmol/min/mg
vmax (PGP; CP 4.0 µM): 36.9 ± 4.8 µmol/min/mg
effect on vmax (reduction) (PGP; [3]): without affecting vmax
increase of KM (PGP; [3]): ~ 3 fold
